Data taken from US20120258960A1, “NOVEL MULTIFUNCTIONAL PEPTIDASE INHIBITORS, ESPECIALLY FOR MEDICAL USE” (IMTM GMBH, priority 2009, published 2012).

Assays:
[1] = biological target: purified, recombinant human DPIV (Homo sapiens, UniProt P27487); assay: Measurement of DPIV activity (fluorogenic substrate (Ala-Pro)2-R110)
Procedure: The enzymatic activity of DPIV was assessed by the hydrolysis of the fluorogenic substrate bis-(L-alanyl-prolyl)-Rhodamin-110 (bis-trifluoracetate, abbreviation (Ala-Pro)2-R110). The final substrate concentration was 0.5 μM.
The assay was performed in white microtitre plates for fluorescence measurements. The test items, substrate and enzyme were diluted in assay buffer. […] As controls, the DPIV activity in the absence of test items as well as the spontaneous hydrolysis of the substrate was determined.

[2] = biological target: human recombinant Aminopeptidase N (Homo sapiens, UniProt P15144); assay: Measurement of APN activity (fluorogenic substrate (Ala)2-R110); assay type: biochemical; conditions: human recombinant APN approx. 5 nM, substrate 0.5 μM, pH 7.5
Procedure: Inhibitory effects of test items on the enzymatic activity of human recombinant Aminopeptidase N (final concentration approx. 5 nM) were assessed by using the fluorogenic substrate bis-(L-alanyl)-Rhodamine-110 (bis-trifluoracetate, abbreviation (Ala)2-R110) at a final concentration of 0.5 μM. The assay was performed in 0.05 M TRIS/HCl buffer pH 7.5, supplemented with 0.05% Triton (v/v), 0.05% BSA (w/v), 2 mM MgCl2.
The assay was performed in white microtitre plates for fluorescence measurements.
As controls, (Ala)2-R110 hydrolyzing activity in the absence of any test item as well as the spontaneous substrate hydrolysis was determined.
The release of the fluorescent hydrolysis product Rhodamine 110 was measured at an excitation wavelength of 485 nm and an emission wavelength of 530 nm by using a microtitre fluorescence reader immediately after substrate addition as well as after 30, 60 and 120 min.

Chain of human recombinant Aminopeptidase N (P15144 whole entry): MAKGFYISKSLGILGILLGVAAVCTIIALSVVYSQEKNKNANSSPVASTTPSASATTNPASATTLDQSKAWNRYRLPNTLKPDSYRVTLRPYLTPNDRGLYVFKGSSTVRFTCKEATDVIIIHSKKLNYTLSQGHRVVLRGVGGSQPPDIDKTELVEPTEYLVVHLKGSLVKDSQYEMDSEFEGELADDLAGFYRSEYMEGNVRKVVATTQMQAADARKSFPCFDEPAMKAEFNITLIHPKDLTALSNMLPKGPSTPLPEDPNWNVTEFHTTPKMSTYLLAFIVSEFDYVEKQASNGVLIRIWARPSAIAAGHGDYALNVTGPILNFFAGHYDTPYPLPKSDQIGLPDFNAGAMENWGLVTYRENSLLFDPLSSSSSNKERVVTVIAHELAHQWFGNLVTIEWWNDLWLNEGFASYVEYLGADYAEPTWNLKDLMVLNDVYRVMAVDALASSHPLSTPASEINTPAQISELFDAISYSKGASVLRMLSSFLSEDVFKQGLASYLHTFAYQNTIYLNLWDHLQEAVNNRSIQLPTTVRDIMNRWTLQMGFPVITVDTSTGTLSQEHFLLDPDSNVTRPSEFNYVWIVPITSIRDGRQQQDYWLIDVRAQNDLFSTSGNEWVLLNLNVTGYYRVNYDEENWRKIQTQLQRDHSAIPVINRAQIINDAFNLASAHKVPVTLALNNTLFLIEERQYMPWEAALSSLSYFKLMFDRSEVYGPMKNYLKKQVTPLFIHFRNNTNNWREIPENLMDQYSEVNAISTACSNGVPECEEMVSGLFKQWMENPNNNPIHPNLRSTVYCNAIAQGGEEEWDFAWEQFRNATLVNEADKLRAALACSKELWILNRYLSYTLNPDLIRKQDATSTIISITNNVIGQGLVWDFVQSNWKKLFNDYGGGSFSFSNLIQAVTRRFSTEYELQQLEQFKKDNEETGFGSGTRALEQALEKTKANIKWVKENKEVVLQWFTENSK
Chain of purified, recombinant human DPIV (P27487 whole entry): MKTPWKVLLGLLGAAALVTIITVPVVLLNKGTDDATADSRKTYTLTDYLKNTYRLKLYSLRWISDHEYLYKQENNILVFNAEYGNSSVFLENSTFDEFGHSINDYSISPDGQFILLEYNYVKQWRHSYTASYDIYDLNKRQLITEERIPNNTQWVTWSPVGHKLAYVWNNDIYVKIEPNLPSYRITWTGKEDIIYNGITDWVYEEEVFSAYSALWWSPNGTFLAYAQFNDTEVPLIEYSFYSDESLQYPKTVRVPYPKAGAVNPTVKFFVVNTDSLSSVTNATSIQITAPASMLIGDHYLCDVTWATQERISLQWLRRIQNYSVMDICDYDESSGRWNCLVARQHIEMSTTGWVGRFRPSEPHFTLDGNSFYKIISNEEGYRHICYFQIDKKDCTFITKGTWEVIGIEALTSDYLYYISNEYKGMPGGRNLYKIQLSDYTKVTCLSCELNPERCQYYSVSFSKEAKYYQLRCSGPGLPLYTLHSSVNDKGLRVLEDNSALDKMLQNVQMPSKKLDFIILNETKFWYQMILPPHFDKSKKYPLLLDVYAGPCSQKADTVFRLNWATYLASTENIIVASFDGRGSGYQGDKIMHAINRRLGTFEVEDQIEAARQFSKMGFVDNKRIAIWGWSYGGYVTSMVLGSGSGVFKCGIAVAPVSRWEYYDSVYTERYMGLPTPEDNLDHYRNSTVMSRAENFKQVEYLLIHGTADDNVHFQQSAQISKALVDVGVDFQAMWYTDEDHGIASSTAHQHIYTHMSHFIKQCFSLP

| IC50 [1] | IC50 [2] | SMILES |
| --- | --- | --- |
| 1700 nM | > 50 µM | NC(CC(=O)NCCCCNC(=O)C(O)C(N)Cc1ccccc1)C(=O)N1CCSC1 (stereo not shown) [drawing 42] |
| 200 nM | 15.4 µM | CN(CCCNC(=O)CC(N)Cc1cc(F)ccc1F)C(=O)C(O)C(N)Cc1ccccc1 (stereo not shown) [drawing 40] |
| 80 nM | 0.14 µM | NC(CC(=O)NCCCCNC(=O)C(O)C(N)Cc1ccccc1)Cc1cc(F)ccc1F (stereo not shown) [drawing 25] |
| > 50000 nM | > 50 µM | CCCCCCCC(=O)NC(CC(=O)NCC(C)(C)CNC(=O)C(O)C(Cc1ccccc1)NC(=O)CCCCCCC)Cc1cc(F)ccc1F (stereo not shown) [drawing 33] |
| 100 nM | 0.01 µM | CC(C)(CNC(=O)CC(N)Cc1cc(F)ccc1F)CNC(=O)C(O)C(N)Cc1ccc(-c2cncnc2)cc1 (stereo not shown) [drawing 77] |
| 200 nM | > 50 µM | CCCCCCCCCC(=O)OC(C(=O)NCC(C)(C)CNC(=O)CC(N)Cc1cc(F)ccc1F)C(N)Cc1ccccc1 (stereo not shown) [drawing 48] |
| 200 nM | 6.2 µM | NC(CC(=O)NC(CCCNC(=O)C(O)C(N)Cc1ccccc1)C(=O)O)Cc1cc(F)ccc1F (stereo not shown) [drawing 35] |
| 2700 nM | 0.18 µM | NC(CC(=O)NCCCCNC(=O)C(O)C(N)Cc1ccccc1)Cc1ccccc1 (stereo not shown) [drawing 23] |
| 160 nM | 5.6 µM | NC(CC(=O)NCCNC(=O)C(O)C(N)Cc1ccccc1)Cc1cc(F)ccc1F (stereo not shown) [drawing 15] |
| 1200 nM | 0.41 µM | NC(CC(=O)NCCCCCCNC(=O)C(O)C(N)Cc1ccccc1)Cc1ccccc1 (stereo not shown) [drawing 28] |
| 100 nM | 0.001 µM | CC(C)(CNC(=O)CC(N)Cc1cc(F)ccc1F)CNC(=O)C(O)C(N)Cc1ccc(-c2ccsc2)cc1 (stereo not shown) [drawing 74] |
| 13800 nM | 16.7 µM | CC(C)(NC(=O)CC(N)Cc1ccccc1)C(C)(C)NC(=O)C(O)C(N)Cc1ccccc1 (stereo not shown) [drawing 20] |
| 72 nM | 0.7 µM | CN(CCCNC(=O)C(O)C(N)Cc1ccccc1)C(=O)CC(N)Cc1cc(F)ccc1F (stereo not shown) [drawing 37] |
| > 50000 nM | > 50 µM | CCCCCCCCCCCCCCCCNC(CC(=O)NCC(C)(C)CNC(=O)C(O)C(Cc1ccccc1)NCCCCCCCCCCCCCCCC)Cc1cc(F)ccc1F (stereo not shown) [drawing 66] |
| 4600 nM | > 50 µM | CC(C)(CNC(=O)CC(N)Cc1cc(F)ccc1F)CNC(=O)C(O)C(N)Cc1ccc(O)cc1 (stereo not shown) [drawing 73] |
| 800 nM | 2.9 µM | NC(CC(=O)NCCNC(=O)C(O)C(N)Cc1ccccc1)Cc1ccccc1 (stereo not shown) [drawing 14] |
| 500 nM | 0.02 µM | NC(CC(=O)NCCCNC(=O)C(O)C(N)Cc1ccccc1)Cc1cc(F)ccc1F (stereo not shown) [drawing 31] |
| 28000 nM | 1.5 µM | NC(CC(=O)NCCNC(=O)C(O)C(N)Cc1ccccc1)Cc1ccc2ccccc2c1 (stereo not shown) [drawing 13] |
| 30000 nM | 0.33 µM | CC(C)(CNCC(N)Cc1cc(F)ccc1F)CNC(=O)C(O)C(N)Cc1ccccc1 (stereo not shown) [drawing 70] |
| 100 nM | 0.07 µM | NC(CC(=O)NCC1(CNC(=O)C(O)C(N)Cc2ccccc2)CCC1)Cc1cc(F)ccc1F (stereo not shown) [drawing 57] |
| 1000 nM | 21 µM | CCCCCCCCCCCCCC(=O)OC(C(=O)NCC(C)(C)CNC(=O)CC(N)Cc1cc(F)ccc1F)C(N)Cc1ccccc1 (stereo not shown) [drawing 46] |
| 190 nM | 0.85 µM | NC(CC(=O)NCC1(CNC(=O)C(O)C(N)Cc2ccccc2)CCCCC1)Cc1cc(F)ccc1F (stereo not shown) [drawing 67] |
| 775 nM | 0.0008 µM | NC(CNC(=O)c1cccc(NC(=O)C(O)C(N)Cc2ccc(-c3cccnc3)cc2)c1)Cc1cc(F)ccc1F (stereo not shown) [drawing 79] |
| 60 nM | 0.03 µM | CCCCCCCCCCCCCCCC(=O)OC(C(=O)NCC(C)(C)CNC(=O)CC(N)Cc1cc(F)ccc1F)C(N)Cc1ccccc1 (stereo not shown) [drawing 43] |

| IC50 [1] | IC50 [2] | SMILES |
| --- | --- | --- |
| 100 nM | 0.06 µM | CC(C)(CNC(=O)CC(N)Cc1cc(F)ccc1F)CNC(=O)C(O)C(N)Cc1ccccc1 (stereo not shown) [drawing 26] |
| 280 nM | 22 µM | C[C@@H]1CN(C(=O)CC(O)C(N)Cc2ccccc2)C[C@H](C)N1C(=O)CC(N)Cc1ccccc1 (stereo partly shown) [drawing 19] |
| 2000 nM | 0.18 µM | CC(C)(CNC(=O)CC(N)Cc1ccccc1)CNC(=O)C(O)C(N)Cc1ccccc1 (stereo not shown) [drawing 21] |
| 8000 nM | – | CCCCCCCCCCCCCCCC(=O)OC(C(=O)NCCCCNC(=O)CC(N)Cc1cc(F)ccc1F)C(N)Cc1ccccc1 (stereo not shown) [drawing 53] |
| 1000 nM | > 50 µM | NC(CC(=O)NCCNC(=O)CC(O)C(N)Cc1ccccc1)Cc1ccccc1 (stereo not shown) [drawing 18] |
| > 50000 nM | 0.15 µM | CC(C)(CNC(=O)CC(CN)Cc1ccccc1)CNC(=O)C(O)C(N)Cc1ccccc1 (stereo not shown) [drawing 34] |
| 100 nM | 0.346 µM | CC(C)(CNC(=O)CC(N)Cc1cc(F)ccc1F)CNC(=O)C(O)C(N)Cc1ccc(-c2ccccc2)cc1 (stereo not shown) [drawing 75] |
| 40000 nM | 1.9 µM | CC(C)(CNC(=O)CC(N)Cc1cc(F)ccc1F)CNC(=O)C1OC(=O)NC1Cc1ccc(-c2ccccc2)cc1 (stereo not shown) [drawing 69] |
| 5500 nM | 32 µM | CCCCCCCCCCCCCC(=O)NC(CC(=O)NCC(C)(C)CNC(=O)C(O)C(Cc1ccccc1)NC(=O)CCCCCCCCCCCCC)Cc1cc(F)ccc1F (stereo not shown) [drawing 58] |
| 460 nM | 0.0005 µM | NC(CNC(=O)c1cccc(NC(=O)C(O)C(N)Cc2ccc(-c3ccsc3)cc2)c1)Cc1cc(F)ccc1F (stereo not shown) [drawing 78] |
| 96 nM | 0.0008 µM | CC(C)(CNC(=O)CC(N)Cc1cc(F)ccc1F)CNC(=O)C(O)C(N)Cc1ccc(-c2cccnc2)cc1 (stereo not shown) [drawing 76] |
| 20 nM | > 50 µM | CCCCCCCC(=O)OC(C(=O)N(C)CCCNC(=O)CC(N)Cc1cc(F)ccc1F)C(N)Cc1ccccc1 (stereo not shown) [drawing 44] |
| 900 nM | > 50 µM | NC(CC(=O)N1CCN(C(=O)CC(O)C(N)Cc2ccccc2)CC1)Cc1ccccc1 (stereo not shown) [drawing 16] |
| 300 nM | 15 µM | CC(C)(CNC(=O)CC(N)Cc1cc(F)ccc1F)CNC(=O)C(OC(=O)CCCc1ccccc1)C(N)Cc1ccccc1 (stereo not shown) [drawing 49] |
| > 50000 nM | > 50 µM | CCCC(=O)NC(CC(=O)NCC(C)(C)CNC(=O)C(O)C(Cc1ccccc1)NC(=O)CCC)Cc1cc(F)ccc1F (stereo not shown) [drawing 38] |
| 14000 nM | > 50 µM | CCCCCCCCOC(C(=O)NCC(C)(C)CNC(=O)CC(N)Cc1cc(F)ccc1F)C(N)Cc1ccccc1 (stereo not shown) |
| 100 nM | 0.06 µM | NC(CC(=O)NCCCCNC(=O)C(O)C(N)Cc1ccc(Br)cc1)Cc1cc(F)ccc1F (stereo not shown) [drawing 61] |
| > 50000 nM | 11.5 µM | CN(CCCNC(=O)OCc1ccccc1)C(=O)C(O)C(N)Cc1ccccc1 (stereo not shown) [drawing 72] |
| 470 nM | > 50 µM | NC(CC(=O)NCCCCNC(=O)C(O)C(N)Cc1ccc(C(=O)O)cc1)Cc1cc(F)ccc1F (stereo not shown) [drawing 45] |
| 100 nM | 0.3 µM | CCC(CC)(CNC(=O)CC(N)Cc1cc(F)ccc1F)CNC(=O)C(O)C(N)Cc1ccccc1 (stereo not shown) [drawing 59] |
| 800 nM | 27 µM | NC(CC(=O)N1CCN(C(=O)C(O)C(N)Cc2ccccc2)CC1)Cc1ccccc1 (stereo not shown) [drawing 17] |
| – | 0.02 µM | NC(CC(=O)Nc1ccc(NC(=O)C(O)C(N)Cc2ccccc2)cc1)Cc1cc(F)ccc1F (stereo not shown) [drawing 39] |
| 80 nM | – | CCCC(=O)OC(C(=O)NCC(C)(C)CNC(=O)CC(N)Cc1cc(F)ccc1F)C(N)Cc1ccccc1 (stereo not shown) [drawing 54] |
